Laboratory results: patent publication US20150315218A1, “SALTS OF PRODRUGS OF PIPERAZINE AND SUBSTITUTED PIPERIDINE ANTIVIRAL AGENTS” (Bristol-Myers Squibb Company, priority 2004, published 2015)
Read-outs that look alike come from different tables or passages of the source.

How the values were obtained:
[1] = IV and PO pharmacokinetic studies of prodrug salts (Iab, Ibb, Icb) in the dog, with historical parent data; assay type: in vivo, beagle dogs; details: for Tmax: read-out: Tmax (hr), PO; for concentration at 24 hr: read-out: C-24 hr (μM), PO; for Cmax: read-out: Cmax (μM), PO
Experimental: The IV and PO studies of Iab were conducted in a crossover fashion in three male beagle dogs (11±1.1 kg, Marshall Farms USA Inc., North Rose, N.Y.). There was a two-week washout period between the IV and PO studies.
(§1) In the IV study, Iab was infused via the cephalic vein at 1.2 mg/kg (free acid, or 0.95 mg/kg of IVa equivalent) over 5 min at a constant rate of 0.1 mL/kg/min. The concentration of the dosing solution was 2.4 mg/mL, and the dosing volume was 0.5 mL/kg. Serial blood samples were collected from the femoral artery before dosing and at 5, 10, 15, 30, 45 min, 1, 2, 4, 6, 8 and 24 hr after dosing.
In the PO study, the dogs were fasted overnight before dosing. Iab was administered by oral gavage at 6.6 mg/kg (free acid, or 5.2 mg/kg of IVa equivalent). The concentration of the dosing solution was 13.2 mg/mL, and the dosing volume was 0.5 mL/kg. Serial blood samples were collected before dosing and at 15, 30, 45 min, 1, 2, 4, 6, 8 and 24 hr after dosing.
The IV and PO studies of Ibb were conducted in male beagle dogs (10±0.78 kg, Marshall Farms USA Inc., North Rose, N.Y.). Three dogs were used in each study. Of the three dogs, two same dogs were used for both IV and PO studies. There was a two-week washout period between the IV and PO studies.
The concentration of the dosing solution was 2.6 mg/mL, and the dosing volume was 0.5 mL/kg. Serial blood samples were collected from the femoral artery before dosing and at 5, 10, 15, 30, 45 min, 1, 2, 4, 6, 8 and 24 hr after dosing.
In the PO study, the dogs were fasted overnight before dosing. […] The concentration of the dosing solution was 7.0 mg/mL, and the dosing volume was 1 mL/kg. Serial blood samples were collected before dosing and at 15, 30, 45 min, 1, 2, 4, 6, 8 and 24 hr after dosing.
The IV and PO studies of Icb were conducted in a crossover fashion in three male beagle dogs (12±2.8 kg, Marshall Farms USA Inc., North Rose, N.Y.). There was a two-week washout period between the IV and PO studies.
as §1, with “Icb” for “Iab”, “1.3” for “1.2”, “1.0” for “0.95”, “IVe” for “IVa”, “2.6” for “2.4”
In the PO study, the dogs were fasted overnight before dosing. […] The concentration of the dosing solution was 12 mg/mL, and the dosing volume was 0.5 mL/kg. Serial blood samples were collected before dosing and at 15, 30, 45 min, 1, 2, 4, 6, 8 and 24 hr after dosing.

[2] = Single-dose oral toxicokinetic study of prodrugs in rats; assay type: in vivo, rat; details: CD, rat, plasma; for concentration at 24 h / half-life / Cmax: analyte = label; for concentration at 24 h: read-out: C24 h; for half-life: read-out: T½ (converted); for AUC: read-out: AUC
Experimental: A 1-day oral toxicokinetic study in rats was conducted using the prodrug Iab (monolysine salt). Iab was administered at dosages of 16, 72, and 267 mg/kg (free acid) by oral gavage to three male rats/group using water as the vehicle (solution formulation). The dosages of prodrug free acid correspond to IVa (parent) molar equivalent dosages of 13, 57, and 211 mg/kg, respectively. The endpoint evaluated was plasma toxicokinetics of Iab and IVa in the individual rats.
A 1-day oral toxicokinetic study in rats was conducted by using the prodrug Ibb (monolysine salt). Ibb was administered at dosages of 19, 64, and 236 mg/kg (free acid) by oral gavage to three male rats/group using water as the vehicle (solution formulation).
A 1-day oral toxicokinetic study in rats was conducted using the prodrug Icb (disodium salt). Icb was administered at dosages of 5, 25, and 200 mg/kg (free acid) by oral gavage to three male rats/group using water as the vehicle (solution formulation).

[3] = Single-dose toxicokinetic and tolerability study of prodrugs in dogs; assay type: in vivo, dog; details: for half-life: read-out: T½ (converted)
Experimental: A multi-phase study was conducted to evaluate the tolerability of the prodrug, Iab (monolysine salt) at dosages of 24, 90, or 240 mg/kg (free acid, molar equivalent to 19, 71, or 190 mg/kg of parent IVa, respectively) and the toxicokinetics of lab and IVa (4). Iab was administered to two female dogs/group once daily either as an aqueous solution (24 or 90 mg/kg) or dry-filled capsules (24, 90 [once and twice daily] or 240 mg/kg). The endpoints were: clinical signs, body weight, food consumption, and plasma toxicokinetics of lab and IVa. In all cases, a 1-week washout period was used between doses for all phases of the study. […]
On day 1, Icb was administered to one dog/sex/group once daily in dry-filled capsules at the above dosages. A 1-week washout period was used between doses in the study. On day 8, Icb was administered to one dog/sex/group once daily as an aqueous solution at 25 mg/kg or twice daily in dry-filled capsules at 46 or 125 mg/kg BID.

[4] = male, beagle, plasma, 6.6 mg/kg, after oral prodrug, analyte = label, ND = not detected
[5] = plasma, historical parent, PO 5 mg/kg
[6] = IVa, Iab 24 mg/kg Solution, Dogs #1201, #1202
[7] = IVa, Iab 90 mg/kg Solution, Dogs #3201, #3202
[8] = Table 14: 90 mg/kg, Dogs #1201, #1202, 90 mg/kg
[9] = Table 14: 240 mg/kg, Dogs #2201, #2202, 240 mg/kg
[10] = female, dog, plasma, po, 24 mg/kg, IVa, Iab 24 mg/kg Dry-filled capsule, Dogs #4201, #4202
[11] = female, dog, plasma, po, 24 mg/kg, IVa, Iab 24 mg/kg Solution, Dogs #1201, #1202
[12] = female, dog, plasma, po, 90 mg/kg, IVa, Iab 90 mg/kg Solution, Dogs #3201, #3202
[13] = female, dog, plasma, po, 90 mg/kg, Table 14: 90 mg/kg, Dogs #1201, #1202
[14] = female, dog, plasma, po, 240 mg/kg, Table 14: 240 mg/kg, Dogs #2201, #2202

## COc1ncc(OC)c2c(C(=O)C(=O)N3CCN(C(=O)c4ccccc4)CC3)c[nH]c12 [IVa, N-(benzoyl)-N′-[(4,7-dimethoxy-6-azaindol-3-yl)-oxoacetyl]piperazine]
[1]
  IV AUC Ratio of parent (formed from prodrug vs historical parent study): 0.80
[1]; beagle, in vivo, po, 5 mg/kg
  Bioavailability (%): 57%
[1]; beagle, plasma, historical parent, PO 5 mg/kg
  Tmax: 2.9 h
[1]; male, beagle, plasma, 6.6 mg/kg, after oral prodrug, analyte = label, ND = not detected, read-out: AUCtot (μM · hr), PO
  AUC: 83 ± 16 µM·h
[1]; [4]
  concentration at 24 hr: 0.26 ± 0.12 µM
  Cmax: 14 ± 1.3 µM
[1]; male, beagle, plasma, 6.6 mg/kg, parent after oral prodrug, read-out: t1/2 (hr), PO (converted)
  half-life: 4.1 ± 0.52 h
[1]; male, beagle, plasma, after IV prodrug (~1 mg/kg parent equivalent), analyte = label, read-out: AUCtot (μM · hr), IV
  AUC: 13 ± 2.2 µM·h
[1]; male, beagle, plasma, after IV prodrug, analyte = label, read-out: t1/2 (hr), IV (converted)
  half-life: 5.2 ± 1 h
[1]; male, beagle, plasma, oral prodrug, read-out: Bioavailability (%) of parent from prodrug
  bioavailability: 94%
[1]; male, beagle, plasma, parent after oral prodrug (~5 mg/kg parent equivalent)
  Tmax: 0.25 h
[1]; oral prodrug vs historical parent
  PO AUC Ratio of parent: 1.7
[1]; plasma, historical parent, IV 1 mg/kg, read-out: AUCtot (μM · hr), IV
  AUC: 17 ± 3.5 µM·h
[1]; plasma, historical parent, IV 1 mg/kg, read-out: CLtot (mL/min/kg), IV
  clearance: 2.4 ± 0.43 mL/min/kg
[1]; plasma, historical parent, IV 1 mg/kg, read-out: MRT (hr), IV
  MRT: 3.3 ± 0.71 h
[1]; plasma, historical parent, IV 1 mg/kg, read-out: Vdss (L/kg), IV
  Vd: 0.45 ± 0.083 L/kg
[1]; plasma, historical parent, IV 1 mg/kg, read-out: t1/2 (hr), IV (converted)
  half-life: 2.6 ± 1.2 h
[1]; plasma, historical parent, PO 5 mg/kg, read-out: AUCtot (μM · hr), PO
  AUC: 47 ± 7.2 µM·h
[1]; [5]
  concentration at 24 hr: 0.15 ± 0.093 µM
  Cmax: 6.5 ± 1.2 µM
[1]; plasma, historical parent, PO 5 mg/kg, read-out: t1/2 (hr), PO (converted)
  half-life: 3.8 ± 0.81 h
[2]; male rats, Iab 16 mg/kg PO
  concentration at 24 h: 0.09 µM
  half-life: 3.2 h
[2]; male rats, Iab 72 mg/kg PO
  concentration at 24 h: 0.027 µM
  half-life: 2.3 h
[2]; male rats, Iab 267 mg/kg PO, AUC from zero to ∞
  AUC: 1160 µM·h
[2]; male rats, Iab 267 mg/kg PO
  concentration at 24 h: 1.9 µM
  half-life: 3.4 h
[2]; male rats, single oral dose Iab 16 mg/kg (13 mg/kg IVa molar equiv.), water
  Cmax: 26 µM
[2]; male rats, single oral dose Iab 72 mg/kg (57 IVa equiv.)
  Cmax: 104 µM
[2]; male rats, single oral dose Iab 267 mg/kg (211 IVa equiv.)
  Cmax: 214 µM
[2]; male, po, 16 mg/kg
  AUC: 67 µM·h
[2]; male, po, 72 mg/kg
  AUC: 261 µM·h
[3]; IVa in female dogs, Iab 24 mg/kg (19 IVa equiv.), Dry-filled capsule, Dogs #4201, #4202
  Cmax: 85.6 µM
[3]; IVa in female dogs, Iab 24 mg/kg (19 IVa equiv.), Solution, Dogs #1201, #1202
  Cmax: 66.5 µM
[3]; IVa in female dogs, Iab 90 mg/kg (71 IVa equiv.), Solution, Dogs #3201, #3202
  Cmax: 125 µM
[3]; IVa, Iab 24 mg/kg Dry-filled capsule, Dogs #4201, #4202
  AUC0-∞: 514 µM·h
[3]; IVa, Iab 24 mg/kg Dry-filled capsule, Dogs #4201, #4202, read-out: C24h
  concentration at 24 h: 0.87 µM
[3]; [6]
  AUC0-∞: 330 µM·h
  T½: 3.1 h
[3]; IVa, Iab 24 mg/kg Solution, Dogs #1201, #1202, read-out: C24h
  concentration at 24 h: 0.33 µM
[3]; [7]
  AUC0-∞: 838 µM·h
  T½: 3.9 h
[3]; IVa, Iab 90 mg/kg Solution, Dogs #3201, #3202, read-out: C24h
  concentration at 24 h: 2.2 µM
[3]; [8]
  AUC0-∞: 960 µM·h
  T½: 2.9 h
[3]; Table 14: 240 mg/kg (190 IVa equiv.), Formulation Solution, Dogs #2201, #2202, 240 mg/kg
  Cmax: 189 µM
[3]; [9]
  AUC0-∞: 1584 µM·h
  T½: 4.5 h
[3]; Table 14: 180 (90 BID) mg/kg (142 IVa equiv.), Dry-filled capsule, Dogs #3201, #3202
  Cmax: 248 µM
[3]; Table 14: 180 (90 BID) mg/kg, Dogs #3201 (AUC from zero to 24 h), #3202
  AUC0-∞: 2485 µM·h
[3]; Table 14: 180 (90 BID) mg/kg, Dogs #3201, #3202, read-out: C24h
  concentration at 24 h: 50 µM
[3]; Table 14: IVa in female dogs, 90 mg/kg (71 IVa equiv.), Formulation Solution, Dogs #1201, #1202, 90 mg/kg
  Cmax: 152 µM
[3]; dogs, once daily (QD) dosing of prodrug
  time post-dose at which mean Cmax of parent was achieved: 1 to 2 h
[3]; female, dog, plasma, oral, 24 mg/kg, IVa, Iab 24 mg/kg Dry-filled capsule, Dogs #4201, #4202, read-out: C24 h
  concentration at 24 h: 1.4 µM
[3]; female, dog, plasma, oral, 24 mg/kg, IVa, Iab 24 mg/kg Solution, Dogs #1201, #1202, read-out: C24 h
  concentration at 24 h: 0.61 µM
[3]; female, dog, plasma, oral, 90 mg/kg, IVa, Iab 90 mg/kg Solution, Dogs #3201, #3202, read-out: C24 h
  concentration at 24 h: 3.2 µM
[3]; female, dog, plasma, oral, Table 14: 180 (90 BID) mg/kg, Dogs #3201, #3202, read-out: C24 h
  concentration at 24 h: 34 µM
[3]; female, dog, plasma, po, 24 mg/kg, IVa in female dogs, Iab 24 mg/kg (19 IVa equiv.), Dry-filled capsule, Dogs #4201, #4202
  Cmax: 79.7 µM
[3]; female, dog, plasma, po, 24 mg/kg, IVa in female dogs, Iab 24 mg/kg (19 IVa equiv.), Solution, Dogs #1201, #1202
  Cmax: 72.3 µM
[3]; [10]
  AUC(0-inf): 486 µM·h
  half-life: 4.2 h
[3]; [11]
  AUC(0-inf): 465 µM·h
  half-life: 3.2 h
[3]; female, dog, plasma, po, 90 mg/kg, IVa in female dogs, Iab 90 mg/kg (71 IVa equiv.), Solution, Dogs #3201, #3202
  Cmax: 124 µM
[3]; [12]
  AUC(0-inf): 844 µM·h
  half-life: 4.4 h
[3]; [13]
  AUC(0-inf): 1740 µM·h
  half-life: 3.6 h
[3]; female, dog, plasma, po, 90 mg/kg, Table 14: IVa in female dogs, 90 mg/kg (71 IVa equiv.), Formulation Solution, Dogs #1201, #1202
  Cmax: 214 µM
[3]; female, dog, plasma, po, 240 mg/kg, Table 14: 240 mg/kg (190 IVa equiv.), Formulation Solution, Dogs #2201, #2202
  Cmax: 172 µM
[3]; [14]
  AUC(0-inf): 1190 µM·h
  half-life: 3.7 h
[3]; female, dog, plasma, po, Table 14: 180 (90 BID) mg/kg (142 IVa equiv.), Dry-filled capsule, Dogs #3201, #3202
  Cmax: 311 µM
[3]; female, dog, plasma, po, Table 14: 180 (90 BID) mg/kg, Dogs #3201 (AUC from zero to 24 h), #3202
  AUC(0-inf): 3300 µM·h
